Data from patent US5599811A, “Benzothiazine dioxides as endothelin antagonists” (Warner-Lambert Company, priority 1995, dated 1997).

Assays:
recombinant human ETA R = target: T1, recombinant human ETA R (Homo sapiens, UniProt P25101); type: binding; conditions: [125I]-ET-1 40 pM, 2 hours at 37° C.; read-out: HERBAA IC50
T1 construct: expressed in transfected cells; host or cells: Ltk- cells
T1 sequence (P25101 21-427): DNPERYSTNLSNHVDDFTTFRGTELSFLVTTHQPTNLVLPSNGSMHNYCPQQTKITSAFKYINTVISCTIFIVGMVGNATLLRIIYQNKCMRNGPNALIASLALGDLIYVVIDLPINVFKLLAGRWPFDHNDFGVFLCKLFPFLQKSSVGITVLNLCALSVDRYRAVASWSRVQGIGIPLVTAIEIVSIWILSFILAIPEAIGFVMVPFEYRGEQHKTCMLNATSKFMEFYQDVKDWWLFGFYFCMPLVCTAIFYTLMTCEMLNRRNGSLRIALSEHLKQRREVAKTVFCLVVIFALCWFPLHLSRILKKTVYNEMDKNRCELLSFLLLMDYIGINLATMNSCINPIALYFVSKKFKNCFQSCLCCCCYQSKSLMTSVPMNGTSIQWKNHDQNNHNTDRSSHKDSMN
Procedure: (§1) The compounds of Formula I are valuable antagonists of endothelin.
(§2) The following cultured cells were used in binding experiments: rabbit renal artery vascular smooth muscle cells (ERBA-A), Ltk-cells expressing recombinant human ETA R (HERBA-A), and CHO-K1 cells expressing recombinant human ETB R (HERBA-B).
(§3) Membranes were prepared from cultured cells by lysing cells in cold lysis buffer (5 mM HEPES, 2 mM EDTA, pH 7.4) and homogenizing with a Dounce "A" homogenizer. The homogenate was centrifuged at 30,000× g for 20 minutes at 4° C. Membrane pellets were suspended in cold buffer containing 20 mM Tris, 2 mM EDTA, 200 μM Pefabloc, 10 μM phosphoramidon, 10 μM leupeptin, 1 μM pepstatin at pH 7.4 and frozen at -80° C. until use. Membranes were thawed and homogenized with a Brinkmann Polytron then diluted in tissue buffer containing 20 mM Tris, 2 mM EDTA, 200 μM Pefabloc, and 100 μM bacitracin (pH 7.4). Radioligand and competing ligands were prepared in binding buffer containing 20 mM Tris, 2 mM EDTA, and 0.1% BSA.
(§4) Competing binding assays were initiated by combining membranes, [125I]-ET-1 (40 pM) and the competing ligand in a final volume of 250 μL and incubating for 2 hours at 37° C. The assay was terminated by filtration over Whatman GF/B filters which were presoaked with 50 mM Tris, pH 7.4 containing 0.2% BSA and 100 μM bacitracin. Nonspecific binding was defined as binding in the presence of 100 nM ET-1.

recombinant human ETB R = target: T2, recombinant human ETB R (Homo sapiens, UniProt P24530); type: binding; conditions: [125I]-ET-1 40 pM, 2 hours at 37° C.; read-out: HERBAB IC50
T2 construct: expressed in transfected cells; host or cells: CHO-K1 cells
T2 sequence (P24530 27-442): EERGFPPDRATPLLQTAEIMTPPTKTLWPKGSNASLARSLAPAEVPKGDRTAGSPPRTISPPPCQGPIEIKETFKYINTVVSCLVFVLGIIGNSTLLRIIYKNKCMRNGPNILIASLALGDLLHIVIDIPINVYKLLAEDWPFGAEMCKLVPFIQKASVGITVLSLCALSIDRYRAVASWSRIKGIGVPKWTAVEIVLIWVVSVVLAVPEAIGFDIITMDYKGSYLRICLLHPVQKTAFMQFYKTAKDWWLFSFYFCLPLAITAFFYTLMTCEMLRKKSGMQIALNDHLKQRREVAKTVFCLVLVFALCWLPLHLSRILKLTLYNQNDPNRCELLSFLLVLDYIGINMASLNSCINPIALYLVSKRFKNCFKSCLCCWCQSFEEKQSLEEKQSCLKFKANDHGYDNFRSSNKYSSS
Procedure: as §1, §2, §3, §4

ETA [1] = target: T3, ETA (Oryctolagus cuniculus, UniProt A5A8K3); test: AAR: inhibition of ET-1 stimulated arachidonic acid release in cultured rabbit renal artery vascular smooth muscle cells; type: cell-based; conditions: 0.3 nM ET-1, 30 minutes
T3 construct: cultured rabbit renal artery vascular smooth muscle cells; endogenous in cells; host or cells: cultured rabbit renal artery vascular smooth muscle cells
T3 sequence (A5A8K3 21-427): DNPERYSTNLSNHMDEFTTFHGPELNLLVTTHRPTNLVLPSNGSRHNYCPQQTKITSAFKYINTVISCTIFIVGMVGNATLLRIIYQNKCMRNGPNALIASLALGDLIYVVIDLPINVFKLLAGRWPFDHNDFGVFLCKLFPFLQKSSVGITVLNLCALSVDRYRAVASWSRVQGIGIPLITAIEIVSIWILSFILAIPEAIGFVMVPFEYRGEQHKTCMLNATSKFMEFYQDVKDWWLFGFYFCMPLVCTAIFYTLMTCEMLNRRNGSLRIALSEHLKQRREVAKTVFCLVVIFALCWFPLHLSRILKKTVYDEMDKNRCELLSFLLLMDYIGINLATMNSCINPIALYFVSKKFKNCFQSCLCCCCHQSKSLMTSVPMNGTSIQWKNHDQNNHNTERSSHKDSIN
Text: as §1

ETA [2] = target: T3, ETA; test: VERA-A: antagonism of ET-1 stimulated vasoconstriction in the rabbit femoral artery; conditions: rabbit femoral artery rings, antagonist added 30 minutes before ET-1; read-out: VERAA pA2 (converted)

| IC50 (recombinant human ETA R) [nM] | IC50 (recombinant human ETB R) [nM] | IC50 (ETA [1]) [nM] | Kb (ETA [2]) [nM] | SMILES |
| --- | --- | --- | --- | --- |
| 400 | 2300 | – | – | COc1ccc(CN2C(C(=O)O)=C(Sc3ccc4c(c3)OCO4)c3ccccc3S2(=O)=O)cc1 [Example 44, 4-(benzo[1,3]dioxol-5-ylsulfanyl)-2-(4-methoxy-benzyl)-1,1-dioxo-1,2-dihydro-1λ^6-benzo[e][1,2]thiazine-3-carboxylic acid] |
| 160 | 4600 | – | – | O=C(O)C1=C(c2ccc3c(c2)OCO3)c2ccccc2S(=O)(=O)N1Cc1ccccc1 [Example 27, 4-Benzo[1,3]dioxol-5-yl-2-benzyl-1,1-dioxo-1,2-dihydro-1λ^6-benzo[e][1,2]thiazine-3-carboxylic acid] |
| 55 | 380 | 1300 | – | O=C(O)C1=C(c2ccc3c(c2)OCO3)c2ccccc2S(=O)(=O)N1Cc1cc2c(cc1Cl)OCO2 [Example 31, 4-Benzo[1,3]dioxol-5-yl-2-(6-chloro-benzo[1,3]dioxol-5-ylmethyl)-1,1-dioxo-1,2-dihydro-1λ^6-benzo[e][1,2]thiazine-3-carboxylic acid] |
| 66 | 5400 | 1200 | > 10000 | O=C(O)C1=C(Sc2ccc3c(c2)OCO3)c2ccccc2S(=O)(=O)N1Cc1ccc2c(c1)OCO2 [Example 42, 2-Benzo[1,3]dioxol-5-ylmethyl-4-(benzo[1,3]dioxol-5-ylsulfanyl)-1,1-dioxo-1,2-dihydro-1λ^6-benzo[e][1,2]thiazine-3-carboxylic acid] |
| 3000 | > 25000 | – | – | O=C(NS(=O)(=O)c1ccccc1)C1=C(c2ccc3c(c2)OCO3)c2ccccc2S(=O)(=O)N1Cc1ccc2c(c1)OCO2 [Example 35, N-(4-Benzo[1,3]dioxo-5-yl-2-benzo[1,3]dioxol-5-ylmethyl-1,1-dioxo-1,2-dihydro-1λ^6-benzo[e][1,2]thiazine-3-carbonyl)-benzenesulfonamide] |
| 300 | 3500 | – | – | COc1cc2c(cc1OC)S(=O)(=O)N(Cc1ccc3c(c1)OCO3)C(C(=O)O)=C2Sc1ccc2c(c1)OCO2 [Example 50, 2-Benzo[1,3]dioxol-5-ylmethyl-4-(benzo[1,3]dioxol-5-ylsulfanyl)-6,7-dimethoxy-1,1-dioxo-1,1-dihydro-1λ^6-benzo[e][1,2]thiazine-3-carboxylic acid] |
| 230 | 8200 | – | – | COc1ccc(SC2=C(C(=O)O)N(Cc3ccc4c(c3)OCO4)S(=O)(=O)c3ccccc32)cc1OC [Example 48, 2-Benzo[1,3]dioxol-5-ylmethyl-4-(3,4-dimethoxyphenylsulfanyl)-1,1-dioxo-1,2-dihydro-1λ^6-benzo[e][1,2]thiazine-3-carboxylic acid] |
| 510 | 8700 | – | – | COc1cccc(SC2=C(C(=O)O)N(Cc3ccc4c(c3)OCO4)S(=O)(=O)c3ccccc32)c1 [Example 49, 2-Benzo[1,3]dioxol-5-ylmethyl-4-(3-methoxyphenylsulfanyl)-1,1-dioxo-1,2-dihydro-1λ^6-benzo[e][1,2]thiazine-3-carboxylic acid] |
| 170 | 4700 | – | – | COc1cc(CN2C(C(=O)O)=C(c3ccc4c(c3)OCO4)c3ccccc3S2(=O)=O)cc(OC)c1OC [Example 29, 4-Benzo[1,3]dioxol-5-yl-1,1-dioxo-2-(3,4,5-trimethoxybenzyl)-1,2-dihydro-1λ^6-benzo[e][1,2]thiazine-3-carboxylic acid] |
| 1700 | > 25000 | – | – | CN1C(C(=O)O)=C(c2ccc3c(c2)OCO3)c2ccccc2S1(=O)=O [Example 25, 4-Benzo[1,3]dioxol-5-yl-2-methyl-1,1-dioxo-1,2-dihydro-1λ^6-benzo[e][1,2]thiazine-3-carboxylic acid] |
| 300 | 3100 | – | – | O=C(O)C1=C(c2ccc3c(c2)OCO3)c2ccccc2S(=O)(=O)N1Cc1ccc2c(c1)OCO2 [Example 26, 4-Benzo[1,3]dioxol-5-yl-2-benzo[1,3]dioxol-5-ylmethyl-1,1-dioxo-1,2-dihydro-1λ^6-benzo[e][1,2]thiazine-3-carboxylic acid] |
| 100 | 25000 | – | – | CN1C(C(=O)O)=C(Sc2ccc3c(c2)OCO3)c2ccccc2S1(=O)=O [Example 41, 4-(benzo[1,3]dioxol-5-ylsulfanyl)-2-methyl-1,1-dioxo-1,2-dihydro-1λ^6-benzo[e][1,2]thiazine-3-carboxylic acid] |
| 720 | 3600 | – | – | COc1ccc(C2=C(C(=O)O)N(Cc3ccc4c(c3)OCO4)S(=O)(=O)c3ccccc32)cc1OC [Example 33, 2-Benzo[1,3]dioxol-5-ylmethyl-4-(3,4-dimethoxy-phenyl)-1,1-dioxo-1,2-dihydro-1λ^6-benzo[e][1,2]thiazine-3-carboxylic acid] |
| 11000 | > 25000 | – | – | COc1cc(C2=C(C(=O)O)N(Cc3ccc4c(c3)OCO4)S(=O)(=O)c3ccccc32)cc(OC)c1OC [Example 24, 2-Benzo[1,3]dioxol-5-ylmethyl-1,1-dioxo-4-(3,4,5-trimethoxyphenyl)-1,2-dihydro-1λ^6-benzo[e][1,2]thiazine-3-carboxylic acid] |
| 120 | 12000 | – | – | O=C(O)C1=C(Sc2ccc3c(c2)OCO3)c2ccccc2S(=O)(=O)N1Cc1ccccc1 [Example 43, 4-(benzo[1,3]dioxol-5-ylsulfanyl)-2-benzyl-1,1-dioxo-1,2-dihydro-1λ^6-benzo[e][1,2]thiazine-3-carboxylic acid] |
| 200 | 12000 | – | – | COc1cc(CN2C(C(=O)O)=C(Sc3ccc4c(c3)OCO4)c3ccccc3S2(=O)=O)cc(OC)c1OC [Example 45, 4-(benzo[1,3]dioxol-5-ylsulfanyl)-2-(3,4,5-trimethoxy-benzyl)-1,1-dioxo-1,2-dihydro-1λ^6-benzo[e][1,2]thiazine-3-carboxylic acid] |
| 300 | 4700 | – | – | COc1cc(CN2C(C(=O)O)=C(c3ccc4c(c3)OCO4)c3ccccc3S2(=O)=O)cc2c1OCO2 [Example 32, 4-Benzo[1,3]dioxol-5-yl-2-(7-methoxy-benzo[1,3]dioxol-5-ylmethyl)-1,1-dioxo-1,2-dihydro-1λ^6-benzo[e][1,2]thiazine-3-carboxylic acid] |
| 510 | 22000 | – | – | O=C(O)C1=C(Sc2ccc3c(c2)OCO3)c2ccccc2S(=O)(=O)N1Cc1cc2c(cc1Cl)OCO2 [Example 46, 4-(Benzo[1,3]dioxol-5-ylsulfanyl)-2-(6-chloro-benzo[1,3]dioxol-5-ylmethyl)-1,1-dioxo-1,2-dihydro-1λ^6-benzo[e][1,2]thiazine-3-carboxylic acid] |
| 1800 | 4900 | – | – | COc1ccc(CN2C(C(=O)O)=C(c3ccc4c(c3)OCO4)c3ccccc3S2(=O)=O)c(OCC(=O)O)c1 [Example 30, 4-Benzo[1,3]dioxol-5-yl-2-(2-carboxymethoxy-4-methoxybenzyl)-1,1-dioxo-1,2-dihydro-1λ^6-benzo[e][1,2]thiazine-3-carboxylic acid] |
